Source: patent US20030207813A1, “Retroviral protease inhibitor combinations” (priority 1995, published 2003)
≈ marks a conversion by molar mass, not a printed value. Where two headings read alike, the source gives them in different places.

Columns and labels:
[1] = tested on: 89-959R (resistant strains selected from 89-959 against Example 2); assay: Acute infectivity assay in PHA-activated donor lymphocytes, resistant isolate 89-959R; type: cell-based, HIV-1; conditions: Human immunodeficiency virus 1, Lymphocyte, read-out: Virus Isolate (EC50 ng/mL) 89-959R
Protocol: (§1) Approximately 3×10^7 cells are activated for 48 hours with about 3-5 μg/ml PHA in RPMI continuing 10% fetal bovine serum and IL-2 (10 U/ml). Quantitated virus stocks are added to the activated lymphocyte suspension at a multiplicity of infection of about 0.001-0.01. The cell-virus suspension is incubated at 37° C. for 2 hours to allow virus absorption. The residual virus inoculum is removed by centrifugation and the cells are resuspended in RPMI containing 10% FBS and 10 U/ml IL-2. These infected cells are added to the test-article diluted in complete tissue culture medium from a stock (10 mg/ml) in DMSO in 96 well microtiter plates to give about 5×10^5 cells per well per 200 μl. Infected, untreated cells and cells treated with DMSO alone (0.1%) or either AZT or DDI were used as controls. The cultures were examined for syncytia formation on days 7 and 11 post-infection or the supernants tested for reverse transcriptase activity or p24 antigen.
(§2) RF represents the HIV-1 strain HIV-LRF and RFR represents a mixture of resistant strains obtained by selection of RF against the compound of Example 1. RFR comprises a mixture of viral strains having protease genotypes of G48V (14/40 clones); G48V, V82A (18/40 clones); G48V, L90S (2/40 clones); G48V, 154T, V82A (1/40 clones); G48M (1/40 clones); G48V, Q61H (1/40 clones); V13I, G48V (1/40 clones); G48V, F53L, V82A (1/40 clones); and G48V, V82A, C95Y (1/40 clones). RFR2 represents a mixture of resistant strains obtained by cloning RFR by three rounds of growth at limiting dilution. RFR2 comprises a mixture of viral strains having protease genotypes of G48V, V82A (13/15 clones); G17E, G48V, V82A (1/15 clones); and G48V, V82A, N37D, N88D (1/15 clones). RFRR represents a mixture of resistant strains obtained by selection of RF against the compounds of Examples 1 and 2 and then cloning by three rounds of growth at limiting dilution. RFRR comprises a mixture of viral strains having protease genotypes of G48V, 154T, L63P, V82A (7/9 clones); G48V, 154T, L63P, V82A, N88S (1/9 clones); and G48V, 154T, L63P, G73M, V82A (1/9 clones). SF162 represents the HIV-1 strain SF-162 and SF162R represents a mixture of resistant strains obtained by selection of SF162 against the compound of Example 1. SF162R comprises a mixture of viral strains having protease genotypes of M461, F53L, L63P, A71V, N88D (2/3 clones); and M46I, F53L, L63P, A71V, N88D, Q92R (1/3 clones). 89-959 represents the HIV-1 strain 89-959 and 89-959R represents a mixture of resistant strains obtained by selection of 89-959 against the compound of Example 2. 89-959R comprises a mixture of viral strains having protease genotypes of N88S (4/5 clones); and D25N, T26A, D30N, D37N, R41K, G73D, R87K, N88S (1/4 clones). NL4 represents the HIV-1 strain HIV-1NL4-3. NL4(G48V) represents a strain having a synthetically generated site-directed mutation in the protease from glycine to valine at amino acid position number 48. NL4(I84V) represents a strain having a synthetically generated site-directed mutation in the protease from isoleucine to valine at amino acid position number 84. NL4(R8Q,M46I) represents a strain having synthetically generated site-directed mutations in the protease from arginine to glutamine at amino acid position number 8 and methionine to isoleucine at amino acid position number 46. NL4(P22-538) represents a mixture of resistant strains obtained by selection of HIV-1NL4-3 against the compound of Example 10 after 22 passages comprising protease genotypes M46I, L63P, A71V, V82F, I84V (4/10); M46I, L63P, V82F, I84V (3/10); and M46I, A71V, V82F, I84V (3/10). NL4(P37-538) represents resistant strains obtained by selection of HIV-1NL4-3 against the compound of Example 10 after 37 passages comprising protease genotype M46I, L63P, A71V, 184A. NL4(538/524) represents resistant strains obtained by selection of NL4(P22-538) against the compound of Example 5 after 24 passages comprising protease genotype M46I, L63P, A71V, 184A. […]

HIV-1 strain 89-959 = assay: Acute infectivity assay in PHA-activated donor lymphocytes, isolate 89-959; type: cell-based; conditions: Human immunodeficiency virus 1, Lymphocyte, Table 3, footnote marks show values of the same experiment, read-out: Virus Isolate (EC50 ng/mL) 89-959
Protocol: as §1, §2

SMILES	EC50 ([1]; Table 3, experiments † and §) [ng/mL]	EC50 (HIV-1 strain 89-959) [ng/mL]	EC50 ([1]; Table 3, (experiment ‡)) [ng/mL]
CC(C)CCN(C[C@@H](O)[C@H](Cc1ccccc1)NC(=O)[C@H](CC(N)=O)NC(=O)c1ccc2ccccc2n1)C(=O)NC(C)(C)C (relative stereo) [Example 7, [1S-[1R*(R*),2S*]]-N^1-[3-[[[(1,1-dimethylethyl)amino]carbonyl](3-methylbutyl)amino]-2-hydroxy-1-(phenylmethyl)propyl]-2-[(2-quinolinylcarbonyl)amino]-butanediamide]	12 (≈ 0.0194 µM)	13 (≈ 0.021 µM)	–
CNCC(=O)N[C@H](C(=O)N[C@@H](Cc1ccccc1)[C@H](O)CN(CCC(C)C)C(=O)NC(C)(C)C)C(C)(C)C [Example 2, (2R,3S)-3-(N-methylaminoacetyl-L-tert-butylglycinyl)amino-1-(N-isoamyl-N-(tert-butylcarbamoyl))amino-4-phenyl-2-butanol]	395 (≈ 0.74 µM)	100 (≈ 0.187 µM)	872 (≈ 1.63 µM)
CC(C)(C)NC(=O)[C@@H]1CN(Cc2cccnc2)CCN1C[C@@H](O)C[C@@H](Cc1ccccc1)C(=O)N[C@H]1c2ccccc2C[C@H]1O [Example 5, N-(2(R)-Hydroxy-1(S)-indanyl)-2(R)-phenylmethyl-4(S)-hydroxy-5-(1-(4-(3-pyridylmethyl)-2(S)-N′-(t-butylcarboxamido)-piperazinyl))-pentaneamide]	5 (≈ 0.00815 µM)	36 (≈ 0.0587 µM)	38 (≈ 0.0619 µM)
CC(C)CN(C[C@@H](O)[C@H](Cc1ccccc1)NC(=O)[C@H](CC(N)=O)NC(=O)c1ccc2ccccc2n1)S(=O)(=O)NC(C)(C)C [Example 8, N-[3-[N^2-[N^1-(1,1-dimethylethyl)aminosulfonyl]-N^2-(2-methylpropyl)amino]-2R-hydroxy-1S-(phenylmethyl)propyl]-2S-[(2-quinolinylcarbonyl)amino]butanediamide]	11 (≈ 0.0172 µM)	12 (≈ 0.0187 µM)	–
CC(C)(C)NC(=O)[C@@H]1CC2CCCC[C@@H]2CN1C[C@@H](O)[C@H](Cc1ccccc1)NC(=O)[C@H](CC(N)=O)NC(=O)c1ccc2ccccc2n1 (stereo in doubt) [Example 6, N-tert-Butyl decahydro-2-[2(R)-hydroxy-4-phenyl-3(S)-[[N-(2-quinolylcarbonyl)-L-asparaginyl]amino]butyl]-(4aR,8aS)-isoquinoline-3(S)-carboxamide]	–	4 (≈ 0.00596 µM)	6 (≈ 0.00894 µM)
CC(C)CN(C[C@@H](O)[C@H](Cc1ccccc1)NC(=O)[C@H](CC(N)=O)NC(=O)c1ccc2ccccc2n1)C(=O)NC(C)(C)C (relative stereo) [Example 1, [1S-[1R*(R*),2S*]]-N^1-[3-[[[(1,1-dimethylethyl)amino]carbonyl])2-methylpropyl)amino]-2-hydroxy-1-(phenylmethyl)propyl]-2-[(2-quinolinylcarbonyl)amino]-butanediamide]	5 (≈ 0.00827 µM)	96 (≈ 0.159 µM)	37 (≈ 0.0612 µM)
